From publication PMC3666759, “ATP Dependent Rotational Motion of Group II Chaperonin Observed by X-ray Single Molecule Tracking” (PLoS ONE, 2013)

Target: T1, TKS1-Cpn (group II chaperonin from Thermococcus strain KS-1) (Thermococcus sp. JCM 11816, UniProt P61112, D263C/C366S)
T1 construct: gene thsA; full-length recombinant chaperonin, purified to homogeneity, double-ring homo-oligomer
Assay: diffracted X-ray tracking (DXT), single molecule
Assay type: binding
Conditions: 2 mM ATP; MOPS pH 7.0, 100 mM KCl, 5 mM MgCl2, about 60 °C; immobilised on gold, gold nanocrystal label

T1 sequence (P61112 whole entry D263C/C366S): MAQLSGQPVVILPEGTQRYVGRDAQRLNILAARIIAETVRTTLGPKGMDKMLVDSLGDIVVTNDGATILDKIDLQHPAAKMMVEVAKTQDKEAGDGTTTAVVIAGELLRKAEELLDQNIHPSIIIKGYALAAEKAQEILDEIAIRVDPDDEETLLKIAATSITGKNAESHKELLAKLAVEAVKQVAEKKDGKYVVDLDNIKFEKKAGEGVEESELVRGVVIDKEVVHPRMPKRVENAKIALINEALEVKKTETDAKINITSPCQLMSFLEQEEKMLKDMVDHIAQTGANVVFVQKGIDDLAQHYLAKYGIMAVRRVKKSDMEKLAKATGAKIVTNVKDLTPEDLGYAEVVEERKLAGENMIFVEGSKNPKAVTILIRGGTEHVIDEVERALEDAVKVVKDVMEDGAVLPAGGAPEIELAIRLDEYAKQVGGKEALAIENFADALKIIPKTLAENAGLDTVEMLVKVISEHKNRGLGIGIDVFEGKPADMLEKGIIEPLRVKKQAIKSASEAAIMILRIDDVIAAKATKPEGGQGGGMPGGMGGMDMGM

Nc1ncnc2c1ncn2[C@@H]1O[C@H](COP(=O)(O)OP(=O)(O)OP(=O)(O)O)[C@@H](O)[C@H]1O [ATP]
diffracted X-ray tracking (DXT), single molecule: Angular displacement in the χ direction was clearly activated by the addition of ATP.
